Patent US20260262643A1, “HERBICIDAL BENZOXAZINES” (FMC CORPORATION, priority 2022, published 2026)

Legend:
blackgrass [1] = test: Test A preemergence; format: in vivo, Alopecurus myosuroides; conditions: Alopecurus myosuroides, pre-emergence, 240 h, read-out: Plant response rating, Blackgrass; for pest or weed control at 125 g/ha: 125 g ai/ha, visual injury after 10 days, 0 to 100 scale, 0 is no effect, 100 is complete control; for pest or weed control at 500 g/ha: 500 g ai/ha, 0 to 100 scale (0 no effect, 100 complete control), 10 days
Summary of the method: (§1)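 Visual injury ratings on a 0–100 scale (100 = complete control) versus untreated controls, taken 10 days after treatment in greenhouse. Preemergence: directed soil spray onto seeded loam/sand. Postemergence: foliar application at one- to two-leaf stage, plants 2–10 cm. Formulation: non-phytotoxic solvent plus surfactant.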

foxtail, giant = test: Test A preemergence; format: in vivo, Setaria faberi; conditions: Setaria faberi, pre-emergence, 240 h, read-out: Plant response rating, Foxtail, Giant; for pest or weed control at 125 g/ha: 125 g ai/ha, visual injury after 10 days, 0 to 100 scale, 0 is no effect, 100 is complete control; for pest or weed control at 500 g/ha: 500 g ai/ha, 0 to 100 scale (0 no effect, 100 complete control), 10 days
Summary of the method: as §1

goosegrass = test: Test A preemergence; format: in vivo, Eleusine indica; conditions: Eleusine indica, pre-emergence, 240 h, read-out: Plant response rating, Goosegrass; for pest or weed control at 125 g/ha: 125 g ai/ha, visual injury after 10 days, 0 to 100 scale, 0 is no effect, 100 is complete control; for pest or weed control at 500 g/ha: 500 g ai/ha, 0 to 100 scale (0 no effect, 100 complete control), 10 days
Summary of the method: as §1

kochia [2] = test: Test A preemergence; format: in vivo, Bassia scoparia; conditions: Bassia scoparia, pre-emergence, 240 h, read-out: Plant response rating, Kochia; for pest or weed control at 125 g/ha: 125 g ai/ha, visual injury after 10 days, 0 to 100 scale, 0 is no effect, 100 is complete control; for pest or weed control at 500 g/ha: 500 g ai/ha, 0 to 100 scale (0 no effect, 100 complete control), 10 days
Summary of the method: as §1

oat, wild = test: Test A preemergence; format: in vivo, Avena fatua; conditions: Avena fatua, pre-emergence, 240 h, read-out: Plant response rating, Oat, Wild; for pest or weed control at 125 g/ha: 125 g ai/ha, visual injury after 10 days, 0 to 100 scale, 0 is no effect, 100 is complete control; for pest or weed control at 500 g/ha: 500 g ai/ha, 0 to 100 scale (0 no effect, 100 complete control), 10 days
Summary of the method: as §1

ryegrass, Italian = test: Test A preemergence; format: in vivo, Lolium multiflorum; conditions: Lolium multiflorum, pre-emergence, 240 h, read-out: Plant response rating, Ryegrass, Italian; for pest or weed control at 125 g/ha: 125 g ai/ha, visual injury after 10 days, 0 to 100 scale, 0 is no effect, 100 is complete control; for pest or weed control at 500 g/ha: 500 g ai/ha, 0 to 100 scale (0 no effect, 100 complete control), 10 days
Summary of the method: as §1

blackgrass [3] = test: Test A postemergence; format: in vivo, Alopecurus myosuroides; conditions: Alopecurus myosuroides, post-emergence, 240 h, postemergence, 10 days, 0 to 100 scale (0 no effect, 100 complete control); for pest or weed control at 125 g/ha: 125 g ai/ha, read-out: Blackgrass plant response rating; for pest or weed control at 500 g/ha: 500 g ai/ha, visual injury, read-out: Plant response rating, Blackgrass
Summary of the method: as §1

corn = test: Test A postemergence; format: in vivo, Zea mays; conditions: Zea mays, post-emergence, 240 h, postemergence, 10 days, 0 to 100 scale (0 no effect, 100 complete control); for plant injury at 125 g/ha: 125 g ai/ha, read-out: Corn plant response rating; for Corn plant response rating (crop injury, 0 = no effect, 100 = complete kill) at 500 g/ha: 500 g ai/ha, visual injury
Summary of the method: as §1

kochia [4] = test: Test A postemergence; format: in vivo, Bassia scoparia; conditions: Bassia scoparia, post-emergence, 240 h, postemergence, 10 days, 0 to 100 scale (0 no effect, 100 complete control); for pest or weed control at 125 g/ha: 125 g ai/ha, read-out: Kochia plant response rating; for pest or weed control at 500 g/ha: 500 g ai/ha, visual injury, read-out: Plant response rating, Kochia
Summary of the method: as §1

pigweed, palmer = test: Test A postemergence; format: in vivo, Amaranthus palmeri; conditions: Amaranthus palmeri, post-emergence, 240 h, postemergence, 10 days, 0 to 100 scale (0 no effect, 100 complete control); for pest or weed control at 125 g/ha: 125 g ai/ha, read-out: Pigweed, Palmer plant response rating; for pest or weed control at 500 g/ha: 500 g ai/ha, visual injury, read-out: Plant response rating, Pigweed, Palmer
Summary of the method: as §1

horseweed = test: Test A postemergence; format: in vivo, Erigeron canadensis; conditions: Erigeron canadensis, post-emergence, 240 h, postemergence, 10 days, 0 to 100 scale (0 no effect, 100 complete control); for pest or weed control at 125 g/ha: 125 g ai/ha, read-out: Horseweed plant response rating; for pest or weed control at 500 g/ha: 500 g ai/ha, visual injury, read-out: Plant response rating, Horseweed
Summary of the method: as §1

barnyardgrass = test: Test B flooded paddy test; format: in vivo, Echinochloa crus-galli; conditions: Echinochloa crus-galli, 312 h, 250 g ai/ha, Flood, 13 days, 0 to 100 scale (0 no effect, 100 complete control); read-out: Plant response rating, Barnyardgrass
Summary of the method: (§2)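 Two-leaf plants, 3 cm flood, in-water application, 13-day greenhouse hold, visual 0–100 rating vs untreated checks.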

ducksalad = test: Test B flooded paddy test; format: in vivo, Heteranthera limosa; conditions: Heteranthera limosa, 312 h, 250 g ai/ha, Flood, 13 days, 0 to 100 scale (0 no effect, 100 complete control); read-out: Plant response rating, Ducksalad
Summary of the method: as §2

rice = test: Test B flooded paddy test; format: in vivo, Oryza sativa; conditions: Oryza sativa, 312 h; 250 g ai/ha, Flood, 13 days, 0 to 100 scale (0 no effect, 100 complete control); read-out: Plant response rating, Rice
Summary of the method: as §2

Row | SMILES | pest or weed control at 125 g/ha (blackgrass [1]) [%] | pest or weed control at 500 g/ha (blackgrass [1]) [%] | pest or weed control at 125 g/ha (foxtail, giant) [%] | pest or weed control at 500 g/ha (foxtail, giant) [%] | pest or weed control at 125 g/ha (goosegrass) [%] | pest or weed control at 500 g/ha (goosegrass) [%] | pest or weed control at 125 g/ha (kochia [2]) [%] | pest or weed control at 500 g/ha (kochia [2]) [%] | pest or weed control at 125 g/ha (oat, wild) [%] | pest or weed control at 500 g/ha (oat, wild) [%] | pest or weed control at 125 g/ha (ryegrass, Italian) [%] | pest or weed control at 500 g/ha (ryegrass, Italian) [%] | pest or weed control at 125 g/ha (blackgrass [3]) [%] | pest or weed control at 500 g/ha (blackgrass [3]) [%] | plant injury at 125 g/ha (corn) [%] | Corn plant response rating (crop injury, 0 = no effect, 100 = complete kill) at 500 g/ha (corn) [%] | pest or weed control at 125 g/ha (kochia [4]) [%] | pest or weed control at 500 g/ha (kochia [4]) [%] | pest or weed control at 125 g/ha (pigweed, palmer) [%] | pest or weed control at 500 g/ha (pigweed, palmer) [%] | other results
1 | C[C@H]1CN(C(=O)c2cccc(-n3cnc(C4CCC4)n3)c2)c2cccc(Cl)c2O1 [Compound 93, [(2S)-8-Chloro-2,3-dihydro-2-methyl-4H-1,4-benzoxazin-4-yl][3-(3-cyclobutyl-1H-1,2,4-triazol-1-yl)phenyl]methanone] | 80 | 90 | 80 | 100 | 90 | 100 | 50 | 100 | 20 | 90 | 90 | 100 | 70 | 90 | 60 | 90 | 80 | 90 | 90 | 100 | pest or weed control at 125 g/ha (horseweed): 0%; pest or weed control at 500 g/ha (horseweed): 40%; pest or weed control at 250 g/ha (barnyardgrass): 0%; pest or weed control at 250 g/ha (ducksalad): 0%; plant injury at 250 g/ha (rice): 0%
2 | Cc1ccc(-n2cnc(C3CCC3)n2)cc1C(=O)N1C[C@H](C)Oc2c(Cl)cccc21 [Compound 96, [(2S)-8-Chloro-2,3-dihydro-2-methyl-4H-1,4-benzoxazin-4-yl][5-(3-cyclobutyl-1H-1,2,4-triazol-1-yl)-2-methylphenyl]methanone] | 40 | 80 | 100 | 100 | 100 | 100 | 30 | 100 | 50 | 80 | 100 | 100 | 50 | 90 | 10 | 60 | 90 | 100 | 90 | 90 | pest or weed control at 125 g/ha (horseweed): 40%; pest or weed control at 500 g/ha (horseweed): 80%; pest or weed control at 250 g/ha (barnyardgrass): 60%; pest or weed control at 250 g/ha (ducksalad): 65%; plant injury at 250 g/ha (rice): 0%
3 | CCc1ncn(-c2ccc(OC)c(C(=O)N3C[C@H](C)Oc4c(Cl)cccc43)c2)n1 [Compound 88, [(2S)-8-Chloro-2,3-dihydro-2-methyl-4H-1,4-benzoxazin-4-yl][5-(3-ethyl-1H-1,2,4-triazol-1-yl)-2-methoxyphenyl]methanone] | 80 | 80 | 100 | 100 | 100 | 100 | 90 | 100 | 90 | 90 | 100 | 100 | 60 | 90 | 90 | 90 | 90 | 100 | 90 | 90 | pest or weed control at 125 g/ha (horseweed): 40%; pest or weed control at 500 g/ha (horseweed): 90%; pest or weed control at 250 g/ha (barnyardgrass): 45%; pest or weed control at 250 g/ha (ducksalad): 55%; plant injury at 250 g/ha (rice): 10%
